Results: US4327088A, “Phosphonooxy- or glycosyloxy-substituted acrylophenones, compositions and uses thereof” (priority 1979, dated 1982)
≈ marks a conversion by molar mass, not a printed value. Read-outs that look alike come from different tables or passages of the source.

Columns and labels:
rhinovirus HGP = experiment: Inhibition of viral cytopathogenic effect (rhinovirus HGP in HeLa cells); format: cell-based; conditions: Enterovirus, 48 h, read-out: Minimal Inhibitory Concentration against rhinovirus HGP
Protocol: Inhibition of viral cytopathogenic effect
A suspension of HeLa cells (6×10^4) was mixed with rhinovirus HGP (3×10^3 PFU) (plaque forming units) and was plated in a microtest plate where serially diluted compounds to be tested were contained. The cells were then cultured with Eagle's minimum essential medium containing 2% calf serum, 1% tryptose phosphate broth, 100 μg/ml of streptomycin sulfate and 20 unit/ml of penicillin G. Viral c.p.e. (cytopathogenic effect) was observed by a microscope after 2 days culture at 33° C
The antiviral activity of the tested compounds is expressed by the minimal inhibitory concentration at which dose viral c.p.e. is inhibited by 50% as compared to the control culture.

Acute toxicity in mice = experiment: Acute toxicity in mice; parameters: species or system ddy mice; conditions: mouse, in vivo, day 21
Coxsackie virus B1 = experiment: Antiviral activity against lethal infection of Coxsackie virus B1 in mice; format: in vivo, ddy mice; conditions: up to 21 days
Protocol: The antiviral activities of compounds of the invention were tested against lethal infection of Coxsackie virus B1 in mice. ddy Mice weighing about 15 g were infected intraperitoneally (i.p.) by about LD50 of the virus. The infected mice were then administered 4 times with the compounds either by oral (p.o.) or intravenous (i.v.) route at -2, 7, 22 and 31 hrs. after infection. The survivals were recorded up to 21 days.

[1] = ip, i.p. single dose, ddy mice 15 ~ 20 g, dissolved in dimethylsulfoxide, read-out: LD50, i.p. route
[2] = po, ddy mice, suspended in 0.5% carboxymethyl cellulose, read-out: LD50, p.o. route

SMILES | IC50 (rhinovirus HGP) | LD50 at 504 h (Acute toxicity in mice; [1]) | LD50 at 504 h (Acute toxicity in mice; [2]) | soluble in water (Solubility in water) | % Survival (Coxsackie virus B1; 40 mg/kg × 4 p.o.) | % Survival (Coxsackie virus B1; 5 mg/kg × 4 i.v.) | % Survival (Coxsackie virus B1; 10 mg/kg × 4 i.v.) | % Survival (Coxsackie virus B1; 20 mg/kg × 4 p.o.) | % Survival (Coxsackie virus B1; 80 mg/kg × 4 p.o.)
COc1ccc(/C=C/C(=O)c2c(OC)cc(OC)cc2OC(=O)c2ccccc2)cc1 [2'-(benzoyloxy)-4,4',6'-trimethoxychalcone] | 0.03 to 0.1 µg/mL (≈ 0.0717 to 0.239 µM) | > 500 mg/kg | > 1000 mg/kg |  |  |  |  |  | 
COc1ccc(/C=C/C(=O)c2c(OC)cc(OC)cc2OC(=O)c2ccco2)cc1 [2'-(furoyloxy)-4,4',6'-trimethoxychalcone] | 0.03 µg/mL (≈ 0.0735 µM) | > 500 mg/kg | > 1000 mg/kg |  |  |  |  |  | 
COc1ccc(/C=C/C(=O)c2c(OC)cc(OC)cc2OC(=O)c2ccc(OC)cc2OC)cc1 [2'-(2,4-dimethoxybenzoyloxy)-4,4',6'-trimethoxychalcone] | 0.03 to 0.1 µg/mL (≈ 0.0627 to 0.209 µM) | > 500 mg/kg | > 1000 mg/kg |  |  |  |  |  | 
CCOc1ccc(/C=C/C(=O)c2c(OC)cc(OC)cc2OP(=O)(O)O)cc1 [4-ethoxy-2',4'-dimethoxy-6'-(phosphonooxy)chalcone] | 0.006 to 0.02 µg/mL (≈ 0.0147 to 0.049 µM) | > 500 mg/kg | > 1000 mg/kg | soluble in water |  |  |  |  | 
COc1cc(O)c(C(=O)/C=C/c2ccc(OC(C)=O)cc2)c(OC)c1 [4-acetoxy-2'-hydroxy-4',6'-dimethoxychalcone] | 0.3 µg/mL (≈ 0.876 µM) | > 500 mg/kg | > 1000 mg/kg |  |  |  |  |  | 
COc1cc(OC)c(C(=O)/C=C/c2ccc(C)o2)c(OP(=O)(O)O)c1 [2',4'-dimethoxy-3-(5-methyl-2-furyl)-6'-(phosphonooxy)acrylophenone] | 0.04 to 0.1 µg/mL (≈ 0.109 to 0.272 µM) | > 500 mg/kg | > 1200 mg/kg | soluble in water |  |  |  |  | 
COc1ccc(/C=C/C(=O)c2c(OC)cc(OC)cc2OC(=O)c2ccc(OC)cc2)cc1 [2',4,4'-trimethoxy-6'-(4-methoxybenzoyloxy)chalcone] | 0.03 to 0.1 µg/mL (≈ 0.0669 to 0.223 µM) | > 500 mg/kg | > 1000 mg/kg |  |  |  |  |  | 
COc1ccc(/C=C/C(=O)c2c(OC)cc(OC)cc2O[C@@H]2O[C@H](CO)[C@@H](O)[C@H](O)[C@H]2NC(C)=O)cc1 [2'-(2-acetamido-2-deoxy-β-D-glucopyranosyloxy)-4,4',6'-trimethoxychalcone] | 3 to 10 µg/mL (≈ 5.8 to 19.3 µM) | > 300 mg/kg | > 2000 mg/kg | soluble in water |  |  |  |  | 
COc1ccc(/C=C/C(=O)c2c(OC)cc(OC)cc2OC(=O)OCc2ccccc2)cc1 [2'-(benzyloxycarbonyloxy)-4,4',6'-trimethoxychalcone] | 0.01 to 0.03 µg/mL (≈ 0.0223 to 0.0669 µM) | > 500 mg/kg | > 1000 mg/kg |  |  |  |  |  | 
COc1cc(OC)c(C(=O)/C=C/c2ccc3c(c2)OCO3)c(OP(=O)(O)O)c1 [2',4'-dimethoxy-3,4-(methylenedioxy)-6'-(phosphonooxy)chalcone] | 0.06 µg/mL (≈ 0.147 µM) | > 500 mg/kg | > 1000 mg/kg | soluble in water |  |  |  |  | 
COc1cc(OC)c(C(=O)/C=C/c2ccc(SC)cc2)c(OP(=O)(O)O)c1 [2',4'-dimethoxy-4-(methylthio)-6'-(phosphonooxy)chalcone] | 0.02 µg/mL (≈ 0.0487 µM) | > 500 mg/kg | > 1000 mg/kg | soluble in water |  |  |  |  | 
COc1ccc(/C=C/C(=O)c2c(OC)cc(OC)cc2O[C@@H]2O[C@H](COC(C)=O)[C@@H](OC(C)=O)[C@H](OC(C)=O)[C@H]2NC(C)=O)cc1 [2'-(2-acetamido-2-deoxy-3,4,6-tri-O-acetyl-β-D-glucopyranosyloxy)-4,4',6'-trimethoxychalcone] | 0.1 to 0.3 µg/mL (≈ 0.155 to 0.466 µM) | > 500 mg/kg | > 2000 mg/kg |  |  |  |  |  | 
COc1cc(O)c(C(=O)/C=C/c2ccc3[nH]cnc3c2)c(OC)c1 [3-(5-benzimidazolyl)-2'-hydroxy-4',6'-dimethoxyacrylophenone] | 0.1 to 0.3 µg/mL (≈ 0.308 to 0.925 µM) | > 100 mg/kg | > 1000 mg/kg |  |  |  |  |  | 
COCOc1ccc(/C=C/C(=O)c2c(O)cc(OC)cc2OC)cc1 [2'-hydroxy-4',6'-dimethoxy-4-(methoxymethoxy)chalcone] | 0.03 to 0.1 µg/mL (≈ 0.0871 to 0.29 µM) | > 500 mg/kg | > 1000 mg/kg |  |  |  |  |  | 
COc1cc(OC)c(C(=O)/C=C/c2ccc(C)cc2)c(OP(=O)(O)O)c1 [2',4'-dimethoxy-4-methyl-6'-(phosphonooxy)chalcone] | 0.02 µg/mL (≈ 0.0529 µM) | > 500 mg/kg | > 2000 mg/kg | soluble in water |  |  |  |  | 
CC[N+](CC)(CC)CC(=O)Oc1cc(OC)cc(OC)c1C(=O)/C=C/c1ccc(OC)cc1.[Cl-] [2',4,4'-trimethoxy-6'-(triethylammonioacetoxy) chalcone chloride] | 0.01 µg/mL | 180 mg/kg | > 1000 mg/kg | soluble in water |  |  |  |  | 
CCOc1cc(OC)cc(OP(=O)(O)O)c1C(=O)/C=C/c1ccc(OC)cc1 [2'-ethoxy-4,4'-dimethoxy-6'-(phosphonooxy)chalcone] | 0.02 µg/mL (≈ 0.049 µM) | > 500 mg/kg | > 1000 mg/kg | soluble in water | 30% |  |  |  | 
CCOc1cc(OC)c(C(=O)/C=C/c2ccc(OC)cc2)c(OP(=O)(O)O)c1 [4'-ethoxy-2',4-dimethoxy-6'-(phosphonooxy)chalcone] | 0.03 µg/mL (≈ 0.0735 µM) | > 500 mg/kg | > 2000 mg/kg | soluble in water |  |  |  |  | 
COc1ccc(/C=C/C(=O)c2c(OC)cc(OC)cc2OP(=O)(O)O)cc1 [2',4,4'-trimethoxy-6'-(phosphonooxy)chalcone] | 0.03 to 0.1 µg/mL (≈ 0.0761 to 0.254 µM) | > 500 mg/kg | > 1000 mg/kg | soluble in water | 50% | 20% | 60% | 10% | 70%
COc1cc(OC)c(C(=O)/C=C/c2cccs2)c(OP(=O)(O)O)c1 [2',4'-dimethoxy-6'-(phosphonooxy)-3-(2-thienyl)acrylophenone] | 0.04 to 0.1 µg/mL (≈ 0.108 to 0.27 µM) | > 500 mg/kg | > 1000 mg/kg | soluble in water |  |  |  |  | 
